Data taken from patent US20030176454A1, “N-coating heterocyclic compounds” (priority 2000, published 2003).

With `c1ccc2c(N[C@H]3CC[C@H](Nc4nccc5ccccc45)CC3)nccc2c1` [Example 38, N,N′-Di(isoquinolin-1-yl)-transcyclohexane-1,4-diamine] as the compound, how does the melting point read?
The melting point was 278 to 280 °C.

Which melting point does the source give for `Cc1ncc(-c2cccc(Nc3ncnc4c3CCOc3ccccc3-4)c2)n1C` [Example 86, N-[3-(1,2-dimethyl-1H-imidazol-5-yl)phenyl]-5,6-dihydro[1]benzoxepino[5,4-d]pyrimidin-4-amine] here?
The melting point was 235 to 237 °C.

With `CS(=O)(=O)O.N=C(Nc1cccc(Nc2noc3ccccc23)c1)c1ccccc1` [Example 25, N-[3-(benzo[d]isoxazol-3-ylamino)phenyl]benzamidine methanesulfonate] as the compound, how does the melting point read?
The melting point was 113 to 115 °C.

Which melting point does the source give for `Cn1cncc1-c1cccc(Nc2ccc3ccccc3n2)c1` [Example 34, [3-(1-methyl-imidazol-5-yl)-phenyl]-(quinolin-2-yl)-amine] here?
Its melting point is 60 to 65 °C.

With `c1ccc2c(NCCCCNc3nccc4ccccc34)nccc2c1` [Example 37, N,N′-Di(isoquinolin-1-yl)-butane-1,4-diamine] as the compound, how does the melting point read?
The melting point was 189 to 192 °C.

For `c1ccc(Cc2nnc(Nc3cccc(-n4ccnc4)c3)c3ccccc23)cc1` [Example 36, (4-Benzyl-phthalazin-1-yl)-(3-imidazol-1-yl-phenyl)-amine], which melting point is on record?
Its melting point is 214 to 217 °C.

With `c1cc(Nc2nnc3c4c(cccc24)-c2ccccc2-3)cc(-n2ccnc2)c1` [Example 39, (Indeno[1,2,3-de]phthalazin-3-yl)-[3-(imidazol-1-yl)-phenyl]-amine] as the compound, how does the melting point read?
The melting point was 223 to 226 °C.

For `c1cc(Nc2nncc3ccccc23)cc(-n2ccnc2)c1` [Example 45, [3-(Imidazol-1-yl)-phenyl]-(phthalazin-1-yl)-amine], which melting point is on record?
Its melting point is 135 to 137 °C.

For `I.N=C(Nc1cccc(Nc2nnc3c4c(cccc24)-c2ccccc2-3)c1)c1ccccc1`, which melting point is on record?
The melting point was 183 to 186 °C.

Which melting point does the source give for `c1cc(Nc2nccc3ccccc23)cc(-n2ccnc2)c1` [Example 44, [3-(Imidazol-1-yl)-phenyl]-(isoquinolin-1-yl)-amine] here?
The melting point was 164 to 167 °C.

Which melting point does the source give for `c1ccc2c(c1)-c1cccc3c(NCCCCNc4nccc5ccccc45)nnc-2c13` [Example 46, N-(Indeno[1,2,3-de]phthalazin-3-yl)-N′-(isoquinolin-1-yl)-butane-1,4-diamine] here?
The melting point was 95 to 105 °C.

For `c1cc(CNc2nccc3ccccc23)cc(Nc2nnc3c4c(cccc24)-c2ccccc2-3)c1` [Example 40, (Indeno[1,2,3-de]phthalazin-3-yl)-[3-(isoquinolin-1-ylaminomethyl)-phenyl]-amine], which melting point is on record?
Its melting point is 149 to 152 °C.

For `Cn1cncc1-c1cccc(Nc2nccc3ccccc23)c1` [Example 35, [3-(1-methyl-imidazol-5-yl)-phenyl]-(isoquinolin-1-yl)-amine], which melting point is on record?
The melting point was 208 to 209 °C.

Which melting point does the source give for `c1cc(Nc2ccc(-n3cccc3)cn2)cc(-n2ccnc2)c1` [Example 87, N-[3-(imidazol-1-yl)phenyl]-N-[5-(pyrrol-1-yl)pyridin-2-yl]-amine] here?
The melting point was 152 to 156 °C.
